{
  "source": "patent US12441693B2",
  "about": "“Targeting STAT sumoylation to enhance immune responses” (THE GEORGE WASHINGTON UNIVERSITY, priority 2018, dated 2025)",
  "assay_type_in_all_cases": "cell-based, human",
  "key": {"[1]": {"system": "HIV-infected cultured TCM cells", "experiment": "Killing of HIV-infected cultured TCM cells by expanded autologous NK cells", "conditions": "autologous NK cells expanded with IL-2 and HODHBt", "from_the_text": "As for CD8 T cells, STATS play an important role in the expansion of NK cells. As such, it was hypothesized that inhibiting STAT SUMOylation may enhance the expansion of NK cells. This has important implications for adoptive cell immunotherapies as NK cells are increasingly becoming an attractive alternative to T cell therapies. In order to address whether inhibiting STAT SUMOylation may enhance NK proliferation in vitro, NK cells were isolated from two human HIV-negative donors and expanded using Miltenyi Biotec NK MACS Medium in the presence of 500 IU/ml of IL-2 and in the presence or absence of HODHBt."}, "CD4 T cells": {"system": "CD4 T cells", "experiment": "Expansion of activated CD4 T cells with IL-2", "conditions": "activated in vitro, IL-2, vs DMSO"}, "CD8 T cells": {"system": "CD8 T cells", "experiment": "Expansion of polyclonally activated CD8 T cells with IL-2", "conditions": "IL-2, vs DMSO/untreated", "protocol": "For these tests, human CD4 and CD8 T cells were activated in vitro and expanded with interleukin-2 (IL-2) in the presence of DMSO (control vehicle) or HODHBt. […] Some immunotherapy strategies rely on the in vitro expansion of the own patient CD4 and CD8 T cells specific against a tumoral or a viral antigen.\nTo address whether SUMOylation controls STAT activation in human CD8 T cells, polyclonally activated CD8 T cells were cultured with IL-2 in the presence or absence of HODHBt and levels of phosphorylated STATs were measured by Western blot. […] Proliferation of CD8 T cells is dependent on the activation and phosphorylation of STAT5."}},
  "note": "“Also recorded” adds a separate entry of the source.",
  "data": [
    {"smiles": "O=c1c2ccccc2nnn1O", "note": "[HODHBt]", "values": [
      {"measurement": "killing of HIV-infected cultured TCM cells by NK cells expanded with compound", "setting": "[1]", "value": "as well as HIV-infected cultured TCM cells from the same donor"},
      {"measurement": "expansion of CD4 T cells", "setting": "CD4 T cells", "value": "increased expansion"},
      {"measurement": "expansion of CD8 T cells", "setting": "CD8 T cells", "value": "increased expansion; also recorded: enhanced the expansion of polyclonally activated CD8 T in 5 human donors"}
    ]}
  ]
}
